Activity calls are given as the source filed them. The rule behind the calls is not given here.
Experiments:
[1] = molecular target: Metallo-beta-lactamase type 2 (Klebsiella pneumoniae) (UniProt C7C422); assay: Inhibition of NDM-1 in Klebsiella pneumoniae ATCC 5055 assessed as potentiation of meropenem induced antibacterial activity by measuring meropenem MIC at 100 ug/ml after 18 to 24 hrs by broth microdilution method (reference value: >128 ug/ml)
[2] = test system: Escherichia coli str. K-12 substr. MG1655; assay: Inhibition of NDM-1 in Escherichia coli MG1655 assessed as potentiation of meropenem induced antibacterial activity by measuring meropenem MIC at 100 ug/ml after 18 to 24 hrs by broth microdilution method (reference value: >128 ug/ml)
[3] = Inhibition of recombinant bacterial IMP-1 expressed in Escherichia coli BL21 (DE3) cells using FC4 as substrate preincubated for 10 mins prior to substrate addition in presence of Triton X-100 by fluorescence-based assay; parameters: species or system Bacteria
[4] = Inhibition of recombinant bacterial NDM-1 expressed in Escherichia coli BL21 (DE3) cells using imipenem as substrate in presence of Triton X-100 by spectrophotometric analysis; parameters: species or system Bacteria
[5] = Inhibition of recombinant bacterial VIM-2 expressed in Escherichia coli BL21 (DE3) cells using FC4 as substrate preincubated for 10 mins prior to substrate addition in presence of Triton X-100 by fluorescence-based assay; parameters: species or system Bacteria
[6] = Inhibition of recombinant bacterial Bc2 expressed in Escherichia coli BL21 (DE3) cells using FC5 as substrate preincubated for 10 mins prior to substrate addition by fluorescence-based assay; parameters: species or system Bacteria
[7] = Inhibition of recombinant bacterial SPM-1 expressed in Escherichia coli BL21 (DE3) cells using FC5 as substrate preincubated for 10 mins prior to substrate addition by fluorescence-based assay; parameters: species or system Bacteria
[8] = Binding affinity to recombinant bacterial VIM-2 expressed in Escherichia coli BL21 (DE3) cells by NMR method; parameters: species or system Bacteria
Beta-lactamase OXA-10 = Beta-lactamase OXA-10 (Pseudomonas aeruginosa, UniProt P14489); assay: Inhibition of recombinant Pseudomonas aeruginosa OXA-10 expressed in Escherichia coli BL21 (DE3) cells using FC5 as substrate preincubated up to 360 mins prior to substrate addition by fluorescence-based assay
Sequence of Beta-lactamase OXA-10 (P14489 whole entry): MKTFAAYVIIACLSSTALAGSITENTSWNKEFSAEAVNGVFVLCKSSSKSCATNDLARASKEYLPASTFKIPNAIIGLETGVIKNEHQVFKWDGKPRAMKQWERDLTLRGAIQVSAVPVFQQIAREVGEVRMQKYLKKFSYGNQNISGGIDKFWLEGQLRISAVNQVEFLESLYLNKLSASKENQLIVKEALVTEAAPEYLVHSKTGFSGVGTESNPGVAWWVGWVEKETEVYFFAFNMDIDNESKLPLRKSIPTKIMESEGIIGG

[9] = test system: Pseudomonas aeruginosa PAO1; assay: Inhibition of recombinant Psedomonas aeruginosa PAO1 N-terminal His-tagged AmpC expressed in Escherichia coli BL21 (DE3) cells using FC5 as substrate preincubated up to 360 mins prior to substrate addition in presence or absence of Triton X-100 by fluorescence-based assay
Beta-lactamase TEM = Beta-lactamase TEM (Bacteria, UniProt P62593); assay: Inhibition of recombinant N-terminal His-tagged bacterial Escherichia coli TEM-1 (24 to 286 residues) expressed in Escherichia coli BL21 (DE3) cells using FC5 as substrate preincubated up to 360 mins prior to substrate addition by fluorescence-based assay
Sequence of Beta-lactamase TEM (P62593 whole entry, the tested form may be a part): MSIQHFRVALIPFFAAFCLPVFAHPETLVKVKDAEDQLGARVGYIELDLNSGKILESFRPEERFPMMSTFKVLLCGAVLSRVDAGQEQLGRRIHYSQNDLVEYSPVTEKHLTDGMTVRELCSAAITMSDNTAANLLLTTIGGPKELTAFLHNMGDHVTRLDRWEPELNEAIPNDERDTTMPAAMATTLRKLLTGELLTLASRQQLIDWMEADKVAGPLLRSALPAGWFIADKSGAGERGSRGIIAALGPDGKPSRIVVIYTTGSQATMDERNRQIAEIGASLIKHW

Bacteria = assay: Binding affinity to recombinant bacterial VIM-2 expressed in Escherichia coli BL21 (DE3) cells at 50 uM in presence of 4-(2,3-dichlorophenyl)-2-(sulfonylmethyl)benzoic acid by NMR method
Liver = assay: Drug metabolism in human liver microsomes; format: ADME, microsome
5' exonuclease Apollo = molecular target: T1, 5' exonuclease Apollo (Homo sapiens, UniProt Q9H816); assay: Inhibition of human DCLRE1B
T1 sequence (Q9H816 whole entry): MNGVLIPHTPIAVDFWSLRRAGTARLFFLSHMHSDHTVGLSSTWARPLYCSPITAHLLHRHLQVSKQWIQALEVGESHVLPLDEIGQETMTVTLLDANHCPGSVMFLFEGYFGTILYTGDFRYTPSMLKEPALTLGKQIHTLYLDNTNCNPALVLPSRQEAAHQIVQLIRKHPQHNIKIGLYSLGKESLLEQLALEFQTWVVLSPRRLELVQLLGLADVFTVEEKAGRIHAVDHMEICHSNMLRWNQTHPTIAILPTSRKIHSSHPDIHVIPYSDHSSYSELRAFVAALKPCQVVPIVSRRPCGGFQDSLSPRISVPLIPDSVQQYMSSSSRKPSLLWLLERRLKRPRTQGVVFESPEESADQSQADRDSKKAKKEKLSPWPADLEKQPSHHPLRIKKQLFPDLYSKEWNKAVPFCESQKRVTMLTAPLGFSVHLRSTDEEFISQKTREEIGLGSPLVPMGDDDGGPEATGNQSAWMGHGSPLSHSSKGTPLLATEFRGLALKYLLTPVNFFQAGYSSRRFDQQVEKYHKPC

[10] = Aqueous solubility of the compound in phosphate buffer at pH 7.0; format: physicochemical

Sequence of Metallo-beta-lactamase type 2 (Klebsiella pneumoniae) (C7C422 whole entry): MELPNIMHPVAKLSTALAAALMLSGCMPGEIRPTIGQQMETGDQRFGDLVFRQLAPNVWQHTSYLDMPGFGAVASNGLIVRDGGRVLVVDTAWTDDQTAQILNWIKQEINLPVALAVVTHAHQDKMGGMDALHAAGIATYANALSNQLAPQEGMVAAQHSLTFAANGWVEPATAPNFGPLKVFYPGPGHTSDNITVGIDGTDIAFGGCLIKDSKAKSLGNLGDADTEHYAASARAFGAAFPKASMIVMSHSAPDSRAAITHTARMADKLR

SMILES | MIC [1] [µg/mL] | MIC [2] [µg/mL] | IC50 [3] [nM] | IC50 [4] [nM] | IC50 [5] [nM] | other results
O=C(O)c1ccc(Br)cc1CS | 64 | 32 | 800 | > 100000 | 170 | –
O=C(O)c1ccc(-c2ccc(Cl)cc2)cc1CS | – | – | 60 | 420 | 100 | IC50 [6]: 780 to 7800 nM; IC50 [7]: 780 to 7800 nM
O=C(O)c1ccc(-c2ccsc2)cc1CS | 8 | 16 | 180 | 6780 | 170 | –
O=C(O)c1ccc(-c2cccc(Cl)c2Cl)cc1CS | – | – | 370 | 1160 | 40 | Kd [8]: < 1000 nM; IC50 (Beta-lactamase OXA-10): 37300 nM; inhibition [9]: Active; IC50 (Beta-lactamase TEM): 5500 nM
O=C(O)c1ccc(-c2ccccc2Cl)cc1CS | – | – | 300 | 2850 | 180 | IC50 [6]: 780 to 7800 nM; inhibition [9]: Active; IC50 [7]: 780 to 7800 nM
O=C(O)c1ccc(-c2ccc3ccccc3c2)cc1CS | 32 | 32 | 220 | 2420 | 70 | –
O=C1SCc2cc(-c3ccccc3)ccc21 | – | – | – | – | > 100000 | –
CCOc1cccc(-c2ccc(C(=O)O)c(CS)c2)c1 | 16 | 64 | 320 | 7590 | 180 | –
O=C(O)c1ccc(-c2ccc(F)cc2)cc1CS | – | – | 300 | 710 | 230 | IC50 [6]: 780 to 7800 nM; IC50 [7]: 780 to 7800 nM; IC50 (Beta-lactamase TEM): 32800 nM
O=C(O)c1ccc(-c2cc(C(F)(F)F)cc(C(F)(F)F)c2)cc1CS | > 128 | > 128 | 1720 | 44000 | 450 | Activity (Bacteria): inactive
O=C(O)c1ccc(-c2ccco2)cc1CS | 64 | 32 | 390 | 10200 | 360 | –
O=C(O)c1ccc(-c2ccccc2)cc1CS | 32 | 16 | 230 | 5590 | 230 | Drug metabolism (Liver): Metabolite_Detected; IC50 (5' exonuclease Apollo): 149000 nM; solubility [10]: Soluble
O=C(O)c1ccc(-c2cccc(F)c2)cc1CS | – | – | 390 | 590 | 200 | IC50 (5' exonuclease Apollo): 185000 nM; IC50 [6]: 780 to 7800 nM; IC50 [7]: 780 to 7800 nM
O=C(O)c1ccc(-c2cccc(Cl)c2)cc1CS | – | – | 140 | 310 | 70 | IC50 (5' exonuclease Apollo): 268000 nM; IC50 [6]: 780 to 7800 nM; IC50 [7]: 780 to 7800 nM
O=C(O)Cc1ccccc1S | – | – | – | – | > 100000 | –
CCc1ccc(-c2ccc(C(=O)O)c(CS)c2)cc1 | 64 | 32 | 50 | 570 | 100 | –
O=C(O)c1ccc(-c2ccccc2C(F)(F)F)cc1CS | – | – | 480 | 8820 | 150 | –

— ChEMBL document CHEMBL4024786, “In Silico Fragment-Based Design Identifies Subfamily B1 Metallo-β-lactamase Inhibitors” (J Med Chem, 2018)
